In PubChem BioAssay (NCI):
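Cultured in 96-well plates, cells were exposed to test compound for 48 hours across five concentrations. Definition used: TGI = concentration required for complete inhibition of growth.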

Key:
Assay in all cases: NCI anticancer screen, dose series, 48 h
BT-549 breast = test system: BT-549 breast
786-0 renal = test system: 786-0 renal
OVCAR-4 ovarian = test system: OVCAR-4 ovarian
SNB-75 CNS = test system: SNB-75 CNS
NCI-H23 lung = test system: NCI-H23 lung
NCI-H226 lung = test system: NCI-H226 lung
MDA-N = test system: MDA-N
NCI-H460 lung = test system: NCI-H460 lung
MCF7 breast = test system: MCF7 breast
SW-620 colon = test system: SW-620 colon
NCI/ADR-RES ovarian = test system: NCI/ADR-RES ovarian
HOP-62 NSCLC = test system: HOP-62 NSCLC

Compound	TGI (BT-549 breast)	TGI (786-0 renal)	TGI (OVCAR-4 ovarian)	TGI (SNB-75 CNS)	TGI (NCI-H23 lung)	TGI (NCI-H226 lung)	TGI (MDA-N)	TGI (NCI-H460 lung)	TGI (MCF7 breast)	TGI (SW-620 colon)	TGI (NCI/ADR-RES ovarian)	TGI (HOP-62 NSCLC)
O=C1CCN2C(=N1)Sc1ccccc12	> 100 µM	> 100 µM	> 100 µM	> 100 µM	> 100 µM	> 100 µM	> 100 µM	> 100 µM	> 100 µM	> 100 µM	> 100 µM	> 100 µM
CCOC(=O)C1(C#N)C(C#N)(C#N)C1(C#N)C#N	> 100 µM	> 100 µM	> 100 µM		> 100 µM	> 100 µM	> 100 µM	> 100 µM	> 100 µM	> 100 µM	> 100 µM	> 100 µM
CC(=O)O[C@H]1CC[C@@]2(C)C(=CC[C@@H]3[C@@H]2CC[C@](C)(c2nnc(C)o2)[C@H]3CC#N)C1	> 100 µM	> 100 µM	> 100 µM	> 100 µM	> 100 µM	> 100 µM	> 100 µM		> 100 µM	> 100 µM	> 100 µM	> 100 µM
COC(=O)[C@H](COC(C)(C)C)NC(=O)N[C@H](C)c1ccccc1	> 100 µM	> 100 µM	> 100 µM	> 100 µM	> 100 µM	> 100 µM	> 100 µM	> 100 µM	> 100 µM	> 100 µM	> 100 µM	> 100 µM
N#CCC1C2CC3C(C2=O)C13 (centres undefined)		> 100 µM	> 100 µM	> 100 µM	> 100 µM	> 100 µM	> 100 µM	> 100 µM	> 100 µM	> 100 µM	> 100 µM	> 100 µM
CC1(C)SCc2nc3ccccc3n21		> 100 µM	> 100 µM	3.56 µM	> 100 µM	> 100 µM	> 100 µM	> 100 µM	> 100 µM	> 100 µM	> 100 µM	> 100 µM
CC(Cc1cccc2c1Nc1ccccc1S2)N(C)CCO (centres undefined)	> 100 µM	> 100 µM	> 100 µM		> 100 µM	> 100 µM	> 100 µM	> 100 µM	> 100 µM	> 100 µM	> 100 µM	> 100 µM
CC1CCC2CC1NC(=O)CCOCCC(=O)NC2(C)C (centres undefined)	> 100 µM	> 100 µM	> 100 µM	> 100 µM	> 100 µM		> 100 µM	> 100 µM	> 100 µM	> 100 µM		> 100 µM
COc1cc2cc3c4cc(OC)c(OC)cc4cc[n+]3c(C)c2cc1OC	> 100 µM	37.9 µM	> 100 µM	45.7 µM	> 100 µM	> 100 µM	> 100 µM	> 100 µM	> 100 µM	> 100 µM	> 100 µM	
S=C(Nc1ccc2c(c1)oc1ccccc12)c1cccs1	> 100 µM	68.9 µM	> 100 µM		> 100 µM	> 100 µM	> 100 µM		> 100 µM	> 100 µM	> 100 µM	> 100 µM
COCC12CCC(OC)C34C5CC6(O)C(OC)C=C(C5C6OC(=O)c5ccccc5)C(C(OC)C13)C4N(C)C2 (centres undefined)	> 100 µM	> 100 µM	> 100 µM	> 100 µM	> 100 µM		> 100 µM	> 100 µM	> 100 µM	> 100 µM	> 100 µM	> 100 µM
c1ccc(-c2cc(-c3ccncc3)cc(-c3ccncc3)n2)cc1	> 100 µM	> 100 µM	> 100 µM	99.1 µM	> 100 µM	> 100 µM	> 100 µM		> 100 µM	> 100 µM	> 100 µM	> 100 µM
O=C(Oc1c(Br)cc(Br)cc1C(=O)Oc1ccccc1)C(=O)Oc1c(Br)cc(Br)cc1C(=O)Oc1ccccc1	52 µM	50.3 µM			46.6 µM	46 µM	81.3 µM	> 100 µM	60.8 µM	51.1 µM	> 100 µM	45.1 µM
[N-]=[N+]=CC(=O)OCC1NC(=O)C(COC(=O)C=[N+]=[N-])NC1=O (centres undefined)		> 100 µM	> 100 µM	> 100 µM	> 100 µM	> 100 µM	> 100 µM	> 100 µM	> 100 µM	> 100 µM	> 100 µM	> 100 µM
CSC1=C(C#N)C(=O)N(c2ccc(C)cc2)C(=O)C1C#N (centres undefined)	> 100 µM	> 100 µM	> 100 µM		> 100 µM	> 100 µM	> 100 µM	> 100 µM	> 100 µM	> 100 µM		> 100 µM
COc1ccc(NS(=O)c2c(C)cc(C)cc2C)cc1 (centres undefined)	> 100 µM	> 100 µM	> 100 µM		> 100 µM	> 100 µM	> 100 µM	> 100 µM	> 100 µM	> 100 µM	> 100 µM	> 100 µM
C#C[C@]1(O)[C@@H](CO)O[C@@H](n2ccc(N)nc2=O)[C@@H]1O	22.2 µM		5.33 µM	1.82 µM	1.78 µM	3.66 µM	0.175 µM	0.508 µM	> 100 µM	3.92 µM		
CCc1ccc(Nc2cc(=O)n(C)c(SCc3ccccc3)n2)cc1	> 100 µM	34.4 µM		> 100 µM	> 100 µM	> 100 µM	> 100 µM		> 100 µM	> 100 µM	> 100 µM	> 100 µM
COC(=O)[C@@H](OC(C)=O)[C@@H](OC(C)=O)c1nnc2ccc(Cl)nn12	> 100 µM	> 100 µM	> 100 µM		> 100 µM		> 100 µM	> 100 µM	> 100 µM	> 100 µM	> 100 µM	> 100 µM
Cc1[nH]c2nc3c(ncn3COCCO)c(=O)n2c1C(c1ccccc1)(c1ccccc1)c1ccccc1	2.22 µM	32.2 µM	30.4 µM	26.7 µM	23.1 µM		29.2 µM	30.9 µM	23.1 µM	> 56.4 µM	> 100 µM	44.3 µM
